The results in this text go back to US9999617B2, “Compositions for treating bacterial infections” (TRUSTEES OF DARTMOUTH COLLEGE, priority 2009, dated 2018).

≈ marks a conversion by molar mass, not a printed value.

For one test, the system named is S. aureus. Put plainly: Minimum Inhibitory Concentration (MIC), inhibition of growth of S. aureus in vitro. Type of test: cell-based. The following applies: Staphylococcus aureus. The method, then: Once the compounds of the present invention were identified through the MazEF screening assay described above, the activity of the compounds to inhibit growth of S. aureus in vitro was tested using the standard method of determining Minimum Inhibitory Concentrations (MICs). Such methods are well known to those of skill in the art since determining MIC doses is a standard assay in development of antibiotic drugs. For example, MIC values can be determined according to the Clinical and Laboratory Standards Institute guidelines. In Table 1, the MIC values are presented for each of the ten compounds identified through the MazEF screening assay as having potential for antibiotic activity in S. aureus.
In the case of `Cc1ccc(Nc2nc3nonc3nc2N)c(C)c1` [Compound 4], the lowest concentration to inhibit growth (MIC) was 12.5 µg/mL (≈ 48.8 µM).

Take `O=C1c2ccccc2-c2onc3ccc(Cl)c1c23` [Compound 5]: the MIC (as a rule, the lowest concentration that inhibits growth of the organism) came to 6.25 µg/mL (≈ 24.4 µM).

The same test, now with this note: Staphylococcus aureus; S. aureus growth in vitro; read-out: MIC.
With `CN1C(=O)/C(=C/c2cc(Br)cc([N+](=O)[O-])c2O)SC1=S` [Compound 2], the MIC came to 12.5 µg/mL (≈ 33.3 µM).

For `COc1ccc(/C=C2\SC(=O)NC2=S)cc1` [Compound 6], the MIC amounted to 0.78 µg/mL (≈ 3.1 µM).

As to `COc1cc(/C=C2/S/C(=N\S(=O)(=O)c3ccccc3)NC2=O)ccc1O` [Compound 7], the MIC amounted to 100 µg/mL (≈ 256 µM).

Consider `CCN1CCc2c(sc(NC(=O)Nc3ccc(Cl)cc3)c2C(N)=O)C1` [Compound 9], for which the MIC was 100 µg/mL (≈ 264 µM).
